ChEMBL document CHEMBL1201862, “PubChem BioAssay data set” (2004)
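Growth conditions: 96-well plates. Treatment: test compound, 48 hours, 5 concentrations. Analysis: linear interpolation between bracketing concentrations; unreached endpoints set to highest concentration. Abbreviation: GI50, concentration required for 50% inhibition of growth.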 Active and inactive are the calls of the source. No stated cut-off is given here; in the data, active = GI50 up to about 1.1 µM and inactive = higher. Where a SMILES comes first, the peptide text is derived from it. The star is where a group is joined. Cbz = O=C(OCc1ccccc1)*; OBn = c1ccc(CO*)cc1

Experiments:
Test in all cases: growth of human tumour cells (NCI), 48 h
SNB-19 = tested on: SNB-19
HCT-15 = tested on: HCT-15
SN12C = tested on: SN12C
SK-MEL-2 = tested on: SK-MEL-2
ACHN = tested on: ACHN
DU-145 = tested on: DU-145
HT-29 = tested on: HT-29
OVCAR-5 = tested on: OVCAR-5
MDA-MB-231 = tested on: MDA-MB-231
786-0 = tested on: 786-0
KM12 = tested on: KM12
NCI-H460 = tested on: NCI-H460
RXF 393 = tested on: RXF 393
BT-549 = tested on: BT-549
SF-539 = tested on: SF-539
Hs-578T = tested on: Hs-578T

Row | SMILES | GI50 (SNB-19) | GI50 (HCT-15) | GI50 (SN12C) | GI50 (SK-MEL-2) | GI50 (ACHN) | GI50 (DU-145) | GI50 (HT-29) | GI50 (OVCAR-5) | GI50 (MDA-MB-231) | GI50 (786-0) | GI50 (KM12) | GI50 (NCI-H460) | GI50 (RXF 393) | GI50 (BT-549) | GI50 (SF-539) | GI50 (Hs-578T)
1 | O=C1/C(=C/c2ccc(Cl)cc2)CSC/C1=C\c1ccc(Cl)cc1 | 4.84 µM (inactive) | 13.9 µM | 3.39 µM (inactive) | 14.5 µM (inactive) | 3.8 µM (inactive) | 5.87 µM (inactive) | 1.97 µM (inactive) | 2.19 µM (inactive) | 4.17 µM (inactive) | 3.08 µM (inactive) | 1.96 µM (inactive) | 3.32 µM (inactive) | 1.35 µM (inactive) | 2.21 µM (inactive) | 2.76 µM (inactive) | 
2 | COc1c(Sc2c(SCSc3cnc4ccccc4c3Sc3cnc4ccccc4c3OC)cnc3ccccc23)cnc2ccccc12 | 22.4 µM (inactive) | 84.5 µM | > 100 µM (inactive) | > 100 µM (inactive) | 82.6 µM (inactive) | > 100 µM (inactive) | 78.7 µM (inactive) | > 100 µM (inactive) | 29 µM (inactive) | > 100 µM (inactive) | > 100 µM (inactive) | 98.2 µM (inactive) |  | 54.5 µM (inactive) | > 100 µM (inactive) | 52.2 µM (inactive)
3 | COC(=O)C(Cc1ccc(O)cc1)NC(=O)C(CC(=O)OCc1ccccc1)NC(=O)OCc1ccccc1 (stereo unspecified) (Cbz-Asp(OBn)-Tyr-OMe; configuration not given here) | 18.3 µM (inactive) | 18.3 µM | 21 µM (inactive) | 19.2 µM (inactive) | 20.1 µM (inactive) |  | 17.1 µM (inactive) | 22.7 µM (inactive) | 18.7 µM (inactive) | 18.2 µM (inactive) | 22.6 µM (inactive) | 12.4 µM (inactive) | 14 µM (inactive) | 22.6 µM (inactive) |  | 24.9 µM (inactive)
4 | O=C1/C(=C/c2cccc(Br)c2)CSC/C1=C\c1cccc(Br)c1 | 2.88 µM (inactive) | 2.51 µM | 2.25 µM (inactive) | 3.08 µM (inactive) | 2.87 µM (inactive) | 8.69 µM (inactive) | 2.29 µM (inactive) | 4.88 µM (inactive) | 4.2 µM (inactive) | 3.45 µM (inactive) | 1.99 µM (inactive) | 2.57 µM (inactive) | 1.79 µM (inactive) | 2.13 µM (inactive) | 2.53 µM (inactive) | 
5 | CCN(CCCl)c1cc(CN(C)C)cc(NC(=O)c2cc(C(=O)Nc3cc(CN(C)C)cc(N(CC)CCCl)c3)n(C)n2)c1 | 0.0658 µM (active) | 2.31 µM | 0.3 µM (active) | 1.55 µM (inactive) | 0.0828 µM (active) | 0.389 µM (active) | 0.136 µM (active) | 2.32 µM (inactive) | 1.53 µM (inactive) | < 0.01 µM (active) | 0.236 µM (active) | < 0.01 µM (active) | 0.449 µM (active) |  | 0.338 µM (active) | 0.197 µM (active)
6 | COc1ccc(CNC(=O)[C@H](Cc2ccc(O)cn2)NC(C)=O)cc1 | > 100 µM (inactive) | > 100 µM | > 100 µM (inactive) | > 100 µM (inactive) | > 100 µM (inactive) | > 100 µM (inactive) | > 100 µM (inactive) | > 100 µM (inactive) |  | > 100 µM (inactive) | > 100 µM (inactive) | > 100 µM (inactive) | > 100 µM (inactive) | > 100 µM (inactive) | > 100 µM (inactive) | > 100 µM (inactive)
7 | CN(C)C1C(O)=C(C(=O)NCN2CCCC2)C(=O)C2(O)C(O)=C3C(=O)c4c(O)cccc4C(C)(O)C3CC12 (stereo unspecified) | > 100 µM (inactive) | > 100 µM | > 100 µM (inactive) | > 100 µM (inactive) | > 100 µM (inactive) | 62.2 µM (inactive) | > 100 µM (inactive) | > 100 µM (inactive) | 29.2 µM (inactive) | > 100 µM (inactive) | > 100 µM (inactive) |  | > 100 µM (inactive) | > 100 µM (inactive) |  | > 100 µM (inactive)
8 | Cc1nc2c(o1)C(=O)c1ccccc1/C2=N/C1CCCCC1N (stereo unspecified) | 0.787 µM (active) | 0.547 µM | 0.386 µM (active) | 0.867 µM (active) | 0.649 µM (active) | 1.48 µM (inactive) | 2.28 µM (inactive) | 1.75 µM (inactive) | 0.373 µM (active) | 1.77 µM (inactive) | 1.67 µM (inactive) | 1.61 µM (inactive) |  | 0.41 µM (active) | 0.32 µM (active) | 0.644 µM (active)
9 | Oc1cc(O)cc(-c2nc3cc(F)ccc3s2)c1 | 23.7 µM (inactive) | 19.7 µM | 29.4 µM (inactive) | 22.7 µM (inactive) | 24.7 µM (inactive) | 32.8 µM (inactive) | 21.4 µM (inactive) | 20.8 µM (inactive) | 25.6 µM (inactive) | 20.6 µM (inactive) | 20.4 µM (inactive) | 22.8 µM (inactive) | 22.7 µM (inactive) | 20.2 µM (inactive) | 29 µM (inactive) | 
10 | C=CCn1c(-c2ccc(/N=N/Nc3ccc(-c4n[nH]c(=S)n4CC=C)cc3)cc2)n[nH]c1=S | 27 µM (inactive) | 4.59 µM | 3.49 µM (inactive) | 2.67 µM (inactive) | 2.21 µM (inactive) | 3.65 µM (inactive) |  | 28 µM (inactive) | 22 µM (inactive) | 8.41 µM (inactive) | 3.04 µM (inactive) |  | 13.9 µM (inactive) | 2.3 µM (inactive) |  | 5.15 µM (inactive)
